The target of the experiment is T1, recombinant human NK3 receptor (Homo sapiens, UniProt P29371).
T1 construct: expressed in transfected cells; host or cells: HEK293 cells (transient expression), membranes
T1 sequence (P29371 1-465): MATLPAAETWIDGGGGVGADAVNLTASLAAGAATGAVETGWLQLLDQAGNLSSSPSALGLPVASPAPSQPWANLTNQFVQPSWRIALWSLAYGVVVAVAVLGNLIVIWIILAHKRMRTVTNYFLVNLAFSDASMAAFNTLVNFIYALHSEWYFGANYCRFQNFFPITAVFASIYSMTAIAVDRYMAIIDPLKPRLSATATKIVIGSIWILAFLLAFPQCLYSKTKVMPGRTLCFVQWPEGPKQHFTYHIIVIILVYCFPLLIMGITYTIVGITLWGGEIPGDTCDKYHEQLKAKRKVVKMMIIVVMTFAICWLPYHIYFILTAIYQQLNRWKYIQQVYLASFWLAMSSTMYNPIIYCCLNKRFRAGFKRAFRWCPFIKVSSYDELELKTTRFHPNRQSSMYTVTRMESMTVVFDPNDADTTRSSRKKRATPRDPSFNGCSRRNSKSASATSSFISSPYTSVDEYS
The experiment can be described thus: [3H]SR142801 competition binding assay, hNK3 receptor binding. As to conditions: [3H]SR142801 displacement; membranes from HEK293 cells transiently expressing recombinant human NK3 receptor; Ki by Cheng-Prussoff from IC50. As for the experimental part: The compounds were investigated in accordance with the tests given hereinafter. [^3H]SR142801 competition binding assay hNK3 receptor binding experiment were performed using [^3H]SR142801 (Catalog No. TRK1035, specific activity: 74.0 Ci/mmol, Amersham, GE Healthcare UK limited, Buckinghamshire, UK) and membrane isolated from HEK293 cells transiently expressing recombinant human NK3 receptor. After thawing, the membrane homogenates were centrifuged at 48,000×g for 10 min at 4° C., the pellets were resuspended in the 50 mM Tris-HCl, 4 mM MnCl2, 1 μM phosphoramidon, 0.1% BSA binding buffer at pH 7.4 to a final assay concentration of 5 μg protein/well. For inhibition experiments, membranes were incubated with [^3H]SR142801 at a concentration equal to KD value of radioligand and 10 concentrations of the inhibitory compound (0.0003-10 μM) (in a total reaction volume of 500 μl) for 75 min at room temperature (RT). At the end of the incubation, membranes were filtered onto unitfilter (96-well white microplate with bonded GF/C filter preincubated 1 h in 0.3% PEI+0.3% BSA, Packard BioScience, Meriden, Conn.) with a Filtermate 196 harvester (Packard BioScience) and washed 4 times with ice-cold 50 mM Tris-HCl, pH 7.4 buffer. Nonspecific binding was measured in the presence of 10 μM SB222200 for both radioligands. The radioactivity on the filter was counted (5 min) on a Packard Top-count microplate scintillation counter with quenching correction after addition of 45 μl of microscint 40 (Can berra Packard S. A., Zürich, Switzerland) and shaking for 1 h. Inhibition curves were fitted according to the Hill equation: y=100/(1+(x/IC50)^nH), where nH=slope factor using Excel-fit 4 software (Microsoft). IC50 values were derived from the inhibition curve and the affinity constant (Ki) values were calculated using the Cheng-Prussoff equation Ki=IC50/(1+[L]/KD) where [L] is the concentration of radioligand and KD is its dissociation constant at the receptor, derived from the saturation isotherm. All experiments were performed in duplicate and the mean±standard error (SEM) of the individual Ki values was calculated.
As a reminder, the Ki is a dissociation constant, usually derived from enzyme kinetics or from competition with a known ligand. Regarding `Cc1nc(-c2ccc(C(=O)N3CC[C@H]([C@H](C)Oc4ccc(C#N)cn4)[C@@H](c4ccc(Cl)cc4)C3)cc2)no1` [Example 26, 6-((S)-1-{(3S,4S)-3-(4-Chloro-phenyl)-1-[4-(5-methyl-[1,2,4]oxadiazol-3-yl)-benzoyl]-piperidin-4-yl}-ethoxy)-nicotinonitrile], the inhibition constant (Ki) was 5.1 nM.

`C[C@H](Oc1ccc(C#N)cn1)[C@H]1CCN(C(=O)C2CCN(c3ccc(C#N)cn3)CC2)C[C@@H]1c1ccc(Cl)cc1` [Example 27, 4-{(3S,4S)-3-(4-Chloro-phenyl)-4-[(S)-1-(5-cyano-pyridin-2-yloxy)-ethyl]-piperidine-1-carbonyl}-3,4,5,6-tetrahydro-2H-[1,2′]bipyridinyl-5′-carbonitrile]: the Ki was 0.3 nM.

As for `C[C@H](Oc1ccc(C#N)cn1)[C@H]1CCN(C(=O)N2CCN(S(C)(=O)=O)CC2)C[C@@H]1c1ccc(Cl)cc1` [Example 28, 6-{(S)-1-[(3S,4S)-3-(4-Chloro-phenyl)-1-(4-methanesulfonyl-piperazine-1-carbonyl)-piperidin-4-yl]-ethoxy}-nicotinonitrile], the Ki was found to be 3 nM.

For `C[C@H](Oc1ccc(C#N)cn1)[C@H]1CCN(C(=O)c2ccc(-c3ccc(F)cc3)cc2)C[C@@H]1c1ccc(Cl)cc1` [Example 29, 6-{(8)-1-[(3S,4S)-3-(4-Chloro-phenyl)-1-(4′-fluoro-biphenyl-4-carbonyl)-piperidin-4-yl]-ethoxy}-nicotinonitrile], the inhibitory constant (Ki) came out at 7.7 nM.

Consider `N#Cc1ccc(N2CCC(C(=O)N3CC[C@H](COc4ccc(Cl)cn4)[C@@H](c4ccccc4)C3)CC2)nc1` [Example 47, 4-[(3S,4S)-4-(5-Chloro-pyridin-2-yloxymethyl)-3-phenyl-piperidine-1-carbonyl]-3,4,5,6-tetrahydro-2H-[1,2′]bipyridinyl-5′-carbonitrile], for which the inhibition constant (Ki) was 9.9 nM.

Regarding `C[C@H](Oc1ccc(Cl)c(Cl)c1)[C@H]1CCN(C(=O)C2CCN(c3ccc(C#N)cn3)CC2)C[C@@H]1c1ccc(Cl)cc1` [Example 49, 4-{(3S,4S)-3-(4-Chloro-phenyl)-4-[(S)-1-(3,4-dichloro-phenoxy)-ethyl]-piperidine-1-carbonyl}-3,4,5,6-tetrahydro-2H-[1,2′]bipyridinyl-5′-carbonitrile], the inhibition constant Ki was 5.5 nM.

As for `C[C@H](Oc1ccc(C(F)(F)F)cc1)[C@H]1CCN(C(=O)C2CCN(c3ccc(C#N)cn3)CC2)C[C@@H]1c1ccc(Cl)cc1` [Example 50, 4-{(3S,4S)-3-(4-Chloro-phenyl)-4-[(S)-1-(4-trifluoromethyl-phenoxy)-ethyl]-piperidine-1-carbonyl}-3,4,5,6-tetrahydro-2H-[1,2′]bipyridinyl-5′-carbonitrile], the Ki is 1.3 nM.

Consider `C[C@H](Oc1ccc(C#N)cc1)[C@H]1CCN(C(=O)C2CCN(c3ccc(C#N)cn3)CC2)C[C@@H]1c1ccc(Cl)cc1` [Example 51, 4-{(3S,4S)-3-(4-Chloro-phenyl)-4-[(S)-1-(4-cyano-phenoxy)-ethyl]-piperidine-1-carbonyl}-3,4,5,6-tetrahydro-2H-[1,2′]bipyridinyl-5′-carbonitrile], for which the Ki worked out at 1.9 nM.

For the compound `C[C@H](Oc1ccc(F)cn1)[C@H]1CCN(C(=O)C2CCN(c3ccc(C#N)cn3)CC2)C[C@@H]1c1ccc(Cl)cc1` [Example 52, 4-{(3S,4S)-3-(4-Chloro-phenyl)-4-[(S)-1-(5-fluoro-pyridin-2-yloxy)-ethyl]-piperidine-1-carbonyl}-3,4,5,6-tetrahydro-2H-[1,2′]bipyridinyl-5′-carbonitrile], the Ki stood at 0.6 nM.

`C[C@H](Oc1ccc(F)cc1)[C@H]1CCN(C(=O)C2CCN(c3ccc(C#N)cn3)CC2)C[C@@H]1c1ccc(Cl)cc1` [Example 53, 4-{(3S,4S)-3-(4-Chloro-phenyl)-4-[(S)-1-(4-fluoro-phenoxy)-ethyl]-piperidine-1-carbonyl}-3,4,5,6-tetrahydro-2H-[1,2′]bipyridinyl-5′-carbonitrile]: the Ki is 0.6 nM.

For the compound `C[C@H](Oc1ccc(F)c(F)c1)[C@H]1CCN(C(=O)C2CCN(c3ccc(C#N)cn3)CC2)C[C@@H]1c1ccc(Cl)cc1` [Example 54, 4-{(3S,4S)-3-(4-Chloro-phenyl)-4-[(S)-1-(3,4-difluoro-phenoxy)-ethyl]-piperidine-1-carbonyl}-3,4,5,6-tetrahydro-2H-[1,2′]bipyridinyl-5′-carbonitrile], the inhibition constant Ki turned out to be 1.7 nM.

`C[C@H](Oc1ccc(Cl)cc1)[C@H]1CCN(C(=O)C2CCN(c3ccc(C#N)cn3)CC2)C[C@@H]1c1ccc(Cl)cc1` [Example 55, 4-[(3S,4S)-4-[(S)-1-(4-Chloro-phenoxy)-ethyl]-3-(4-chloro-phenyl)-piperidine-1-carbonyl]-3,4,5,6-tetrahydro-2H-[1,2′]bipyridinyl-5′-carbonitrile]: the Ki was 0.9 nM.

As for `C[C@H](Oc1cccc(F)c1)[C@H]1CCN(C(=O)C2CCN(c3ccc(C#N)cn3)CC2)C[C@@H]1c1ccc(Cl)cc1` [Example 56, 4-{(3S,4S)-3-(4-Chloro-phenyl)-4-[(S)-1-(3-fluoro-phenoxy)-ethyl]-piperidine-1-carbonyl}-3,4,5,6-tetrahydro-2H-[1,2′]bipyridinyl-5′-carbonitrile], the inhibition constant Ki was found to be 3.8 nM.

For `Cc1ccc(O[C@@H](C)[C@H]2CCN(C(=O)C3CCN(c4ccc(C#N)cn4)CC3)C[C@@H]2c2ccc(Cl)cc2)cc1` [Example 57, 4-[(3S,4S)-3-(4-Chloro-phenyl)-4-((S)-1-p-tolyloxy-ethyl)-piperidine-1-carbonyl]-3,4,5,6-tetrahydro-2H-[1,2′]bipyridinyl-5′-carbonitrile], the inhibition constant Ki is 1.4 nM.

On to `Cc1ccc(O[C@@H](C)[C@H]2CCN(C(=O)C3CCN(c4ccc(C#N)cn4)CC3)C[C@@H]2c2ccc(Cl)cc2)nc1` [Example 58, 4-{(3S,4S)-3-(4-Chloro-phenyl)-4-[(S)-1-(5-methyl-pyridin-2-yloxy)-ethyl]piperidine-1-carbonyl}-3,4,5,6-tetrahydro-2H-[1,2′]bipyridinyl-5′-carbonitrile], for which the inhibition constant Ki turned out to be 2 nM.

As to `C[C@H](Oc1ncc(F)cn1)[C@H]1CCN(C(=O)C2CCN(c3ccc(C#N)cn3)CC2)C[C@@H]1c1ccc(Cl)cc1` [Example 61, 4-{(3S,4S)-3-(4-Chloro-phenyl)-4-[(S)-1-(5-fluoro-pyrimidin-2-yloxy)-ethyl]-piperidine-1-carbonyl}-3,4,5,6-tetrahydro-2H-[1,2′]bipyridinyl-5′-carbonitrile], the Ki turned out to be 1.5 nM.

With `C[C@H](Oc1ccc(Cl)cn1)[C@H]1CCN(C(=O)C2CCN(c3ccc(C#N)cn3)CC2)C[C@@H]1c1ccc(F)c(F)c1` [Example 62, 4-[(3S,4S)-4-[(S)-1-(5-Chloro-pyridin-2-yloxy)-ethyl]-3-(3,4-difluoro-phenyl)-piperidine-1-carbonyl]-3,4,5,6-tetrahydro-2H-[1,2′]bipyridinyl-5′-carbonitrile], the inhibition constant Ki amounted to 0.2 nM.

On to `C[C@H](Oc1ccc(Cl)cn1)[C@H]1CCN(C(=O)C2CCN(C(=O)C3(C)CC3)CC2)C[C@@H]1c1ccc(F)c(F)c1` [Example 63, {4-[(3S,4S)-4-[(S)-1-(5-Chloro-pyridin-2-yloxy)-ethyl]-3-(3,4-difluoro-phenyl)-piperidine-1-carbonyl]piperidin-1-yl}-(1-methyl-cyclopropyl)-methanone], for which the inhibition constant (Ki) stood at 3.5 nM.

Regarding `C[C@H](Oc1ccc(C#N)cn1)[C@H]1CCN(C(=O)C2CCN(c3ccc(C#N)cn3)CC2)C[C@@H]1c1ccc(F)c(F)c1` [Example 65, 4-[(3S,4S)-4-[(S)-1-(5-Cyano-pyridin-2-yloxy)-ethyl]-3-(3,4-difluoro-phenyl)-piperidine-1-carbonyl]-3,4,5,6-tetrahydro-2H-[1,2′]bipyridinyl-5′-carbonitrile], the Ki came out at 0.4 nM.

As to `C[C@H](Oc1ccc(C#N)cn1)[C@H]1CCN(C(=O)C2CCN(C(=O)C3(C)CC3)CC2)C[C@@H]1c1ccc(F)c(F)c1` [Example 66, 6-((S)-1-{(3S,4S)-3-(3,4-Difluoro-phenyl)-1-[1-(1-methyl-cyclopropanecarbonyl)-piperidine-4-carbonyl]-piperidin-4-yl}-ethoxy)-nicotinonitrile], the inhibition constant Ki came out at 4.6 nM.
